Here are results for 36 molecules from PubChem BioAssay (NCI).

“And” between values parts separate entries of the source, which are not always exact repeats. Equal values may be shown once.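 Values below derive from 48-hour exposures of cells grown in 96-well plates, with endpoints linearly interpolated between the two concentrations bracketing the appropriate inhibition level. At the GI50, growth is halved. The concentration for full growth arrest is given as TGI.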 Bounds are passed on as bounds.

Holding throughout (assay): DTP human tumour cell line panel, 48 h
Test [1] relates to KM20L2 colon.
In test [2] the test system is HOP-18 NSCLC.
Test [3] concerns MCF7 breast.
The test system of test [4] is T-47D breast.
Test [5] relates to MDA-N.
Test [6] deals with PC-3 prostate.
Test [7] deals with MDA-MB-231 breast.
In test [8] the test system is BT-549 breast.
Test [9] relates to RXF-631 renal.

The term TGI denotes the concentration at which net growth stops. High values mean lower sensitivity of the cells, low ones greater sensitivity of the cells. Take `CCOC(=O)C(=[N+]=[N-])[Si](C)(C)C`: the concentration for total growth inhibition (TGI) in test [1] and in test [2] was > 100 µM in each case.

By GI50 is commonly meant the concentration at which growth is held to half of that of the control. On to `C=C(Cl)C(Br)(CCl)CCC(Br)C(C)(C)Cl` (stereo not given), for which the GI50 in test [3] was 4.08 µM; in [4] it was 30.1 µM; in test [5], 2.05 µM; in test [7] it was 2.02 µM; in test [8], 1.99 µM. Moreover, the TGI in test [3] was 7.13 µM and 15.6 µM; in test [5], 7.34 µM and 4.3 µM; in test [6] it was 14.2 µM; in test [7], 2.32 µM and 3.77 µM; in [8], 3.83 µM and 4.53 µM.

Take `COc1ccc(CC2NCCc3c2[nH]c2ccccc32)cc1` (stereo not given): the TGI in test [9] is 73.5 µM; in test [1] it was > 100 µM.

`CCCC(=O)Nc1cc2c3c(c1)CCCN3CCC2`: the concentration for total growth inhibition (TGI) in [3], in test [4], in test [5], in test [6], in test [7] and in test [8] was > 10 µM in each case.

With `CN(C)CC1CCCC/C1=N/OC(=O)c1ccc(Cl)cc1` (stereo not given), the TGI in test [1] and in test [2] was > 100 µM in each case.

`N#CC(C(=O)C(=O)C(C#N)c1ccc(Br)cc1)c1ccc(Br)cc1` (stereo not given): the figures for the TGI in test [1] and in [2] were 27.7 µM and 25.9 µM, respectively.

With `C1CN2CCN3CCN4CCN1[P+]243`, the TGI in test [1] and in [2] was > 100 µM each time.

In the case of `C1=CC(N(c2ccccc2)C2C=CCCC2)CCC1` (stereo not given), the TGI in [1] and in test [2] was > 100 µM throughout.

Take `Cc1[nH]c2ccccc2c1C(=O)/C=C/c1ccccc1O`: the TGI in test [1] and in test [2] was > 100 µM throughout.

Consider `Cc1cc(Cl)ccc1NC(=O)C(=O)Cc1nc2ccccc2o1`, for which the TGI in test [9], in [1] and in [2] was > 100 µM in each case.

`[N-]=[N+]=N[C@H]1C[C@@H](CO)O[C@H]1n1cnc2c(N)ncnc21`: the TGI in test [1] and in test [2] was > 100 µM in each case.

Regarding `CCOC(=O)Nc1ccc(C)c(NC(=O)OCC)c1`, the concentration for total growth inhibition (TGI) in test [3], in [4], in test [5], in test [6] and in test [7] was > 100 µM throughout.

Turning to `OCC1OC(c2nc(C3=NCCCN3)cs2)C(O)C1O` (stereo not given), the TGI in test [9], in test [1] and in test [2] was > 100 µM throughout.

Take `N#C/C1=C(\N)CCSSSC1`: the TGI is > 100 µM in [9] and 49.3 µM in test [1].

As to `O=C1/C(=C/c2ccc(Cl)cc2)CCC1CCN1CCOCC1` (stereo not given), the TGI in test [9], in [1] and in [2] was > 100 µM each time.

Turning to `CC12CP(=O)(c3ccccc3)CC1C2(Cl)Cl` (stereo not given), the TGI in test [1] and in test [2] was > 100 µM each time.

As for `COc1ccc(NC(=O)/C(Cc2cc(=O)oc3cc(O)ccc23)=N\NC(C)(C)C)c(OC)c1`, in test [1], the TGI is > 100 µM.

Turning to `CCOc1ccc(NC(=O)CC#N)cc1`, the TGI in [9], in test [1] and in [2] was > 100 µM throughout.

As to `COc1cc2c(c(OC)c1OC)-c1ccc(SC)c(=O)cc1C(NC=O)CC2` (stereo not given), the TGI in test [3] is 42 µM; in test [4] it was > 100 µM; in test [5] it was < 0.01 µM; in [6], > 100 µM; in test [1] it was < 0.01 µM; in test [7], > 4.64 µM. Moreover, the TGI in test [2] and in test [8] was > 100 µM throughout.

Consider `CN(C)C(n1cc2c(c1)-c1ccc(Cl)cc1C(c1ccccc1F)=NC2)n1cc2c(c1)-c1ccc(Cl)cc1C(c1ccccc1F)=NC2`, for which the TGI in [3] was > 100 µM; in test [4], > 100 µM; in test [5], 52.7 µM; in test [6], > 100 µM; in [7], > 100 µM.

As for `CC(=O)Oc1c2c(c(O)c3ccccc13)C(n1cnc3c(ncn3C3OC(CO)C4OC(C)(C)OC43)c1=N)CCC2` (stereo not given), the figures for the TGI in test [1] and in [2] were 53.5 µM and 34.6 µM, respectively.

With `CN1CCOC(c2ccccc2)O1` (stereo not given), the TGI in [9], in [1] and in [2] was > 100 µM in each case.

In the case of `COc1cccc(C2=NC(C(C)C)CO2)c1` (stereo not given), the TGI in test [1] was > 100 µM.

As to `CCC[CH2][Sn]([Cl])([CH2]CCC)[CH2]CCC`, in test [1], the GI50 was 0.136 µM and the TGI turned out to be 0.295 µM.

On to `O=C(/C=C/c1cccc2ccccc12)c1ccccc1Cl`, for which the TGI in [9] is 41.9 µM; in test [1] it was 25.6 µM; in test [2], 33.3 µM.

Consider `O=c1ccn([C@H]2CSC[C@@H](CO)C2)c(=O)[nH]1`, for which the TGI in [9], in [1] and in [2] was > 100 µM throughout.

With `O=C(CCc1n[nH]c(=S)o1)Nc1ccccc1C(F)(F)F`, the total growth inhibition concentration (TGI) in [9], in test [1] and in test [2] was > 100 µM throughout.

Turning to `COC1(OC)C(N(C)C)=C(Cl)C(=O)/C1=C/C=O`, the TGI in test [1] and in test [2] was > 100 µM in each case.

For `CCOc1ccccc1NC(=O)C(=O)CC(=O)c1sc(Nc2nnc(-c3ccc(Cl)c(Cl)c3)o2)nc1C`, the TGI in test [1] and in test [2] was > 100 µM throughout.

Take `CCC(C)COC(=O)c1ccc(N=Cc2ccc(C=Nc3ccc(C(=O)OCC(C)CC)cc3)cc2)cc1` (stereo not given): the TGI in test [9], in [1] and in test [2] was > 100 µM throughout.

With `CCOc1ccc(NC(=O)C(=O)CC(=O)c2c(C)n([O-])c3ccccc3[n+]2=O)cc1`, the TGI in [9], in test [1] and in [2] was > 100 µM in each case.

As for `CC1c2c(Cl)nc3ccccc3c2Oc2c1c(Cl)nc1ccccc21`, the TGI in test [1] and in test [2] was > 100 µM throughout.

Consider `CC1CN(C(=O)CN2CCC(CCCCN(C)C)CC2)c2ccccc2NC1=O` (stereo not given), for which the TGI in test [9], in test [1] and in [2] was > 100 µM in each case.

In the case of `O=C(Nc1nc(=S)c2c(ncn2CCOC(=O)c2ccccc2)[nH]1)c1ccccc1`, the TGI in [1] and in [2] was > 100 µM each time.

In the case of `Cc1ccc(/C=C/C(=O)c2sc(-c3nc(C)c(C(=O)/C=C/c4ccc(C)cc4)s3)nc2C)cc1`, the TGI in test [9], in test [1] and in test [2] was > 100 µM throughout.

As for `Oc1cccnc1[Se]`, the TGI in test [3], in [4], in test [5], in test [6], in test [7] and in test [8] was > 100 µM in each case.
